Reference: US5373020A, “Substituted 5-(2-((2-aryl-2-hydroxyethyl)amino)propyl)-1,3-benzodioxoles” (American Cyanamid Company, priority 1993, dated 1994)
Counter-ions that a name gives are not always drawn.

How the values were obtained:
[1] = tested on: ob/ob mice; experiment: Plasma glucose, compound in chow, obese mice; format: in vivo, mouse (C57 B1/6J ob/ob)
Method: The compounds of this invention were tested for hypoglycemic and anti-obesity activity according to the following procedure.
Obese mice (C57 B1/6J (ob/ob)), and/or diabetic mice (C57 B1/KsJ (db/db)) were obtained from Jackson Laboratories, Bar Harbor, Maine. Obese rats (fa/fa) were obtained from Charles River Laboratories, Wilmington, Mass. Obese mice were 8 weeks of age and diabetic mice were 9 weeks of age at the start of the test. Obese rats were 12-14 weeks of age at the start.
The test compounds were dissolved in methanol, mixed with powdered Purina rodent chow on a weight of compound to weight of chow basis and thoroughly dried.
Groups of 6 control mice or rats received vehicle (methanol) treated chow.
[…] Thus, a 40 g mouse, fed the test compound at a concentration of 0.02 percent of the diet, would receive a dose of 20 mg/kg/day if it ate 4 g of chow per day.
The mice or rats were weighed before the first treatment and once at the end of each indicated treatment period.
Blood samples were collected before the first treatment and once at the end of each indicated treatment period by retro-orbital puncture using heparinized capillary tubes.
Plasma was separated by centrifugation in a Beckman microfuge for 5 minutes. Plasma glucose concentrations were determined with the Beckman glucose analyzer which uses a glucose oxidase method.

[2] = target: T1, β3-receptors (Rattus norvegicus, UniProt P26255); experiment: Stimulation of adipocyte lipolysis (β3-effect); format: cell-based
T1 construct: Rat epididymal fat pads were excised and placed in 0.9% saline; from tissue; host or cells: collagenase-isolated adipocytes from rat epididymal fat pads
Method: β-Adrenergic receptors can be divided into β1, β2 and β3 -subtypes. Activation of β1 -receptors invokes increases in heart rate while activation of β2 -receptors stimulates glycogen breakdown in muscle and thereby prevents glycogen synthesis. Activation of β3 -receptors stimulates lipolysis (the breakdown of adipose tissue triglycerides to glycerol and free fatty acids), and thereby promotes the loss of fat mass.
The β3 -effect of the compounds was determined by their ability to stimulate adipocyte lipolysis. Rat epididymal fat pads were excised and placed in 0.9% saline. Four grams of tissue were transferred to a flask with 20 ml of aerated Krebs-Henseleit bicarbonate (KHB) buffer containing 3% fatty acid-free bovine serum albumin to which 75 mg of crude bacterial collagenase (Worthington) had been added. The tissue was incubated for about 45 minutes at 37° C. with gentle shaking. The cells were then washed three times with two volumes of KHB buffer, filtered through two layers of gauze, and brought to a final volume of 80 ml with KHB buffer. One ml aliquots of the cell suspension were added to plastic test tubes containing the appropriate additions of vehicle or compound. The cells were gassed for 1 minute with 95% O2 -5% CO2, capped, and incubated at 37° C. with continuous shaking for a total of 30 minutes. The reaction was stopped by adding 0.1 ml of 30% perchloric acid and 0.1 ml of chloroform. After centrifugation, 0.5 ml of supernatant was transferred to another test tube and neutralized with 0.04 ml of 3M K2 CO3 -0.5M triethanolamine. The amount-of glycerol generated from the hydrolysis of endogenous triglycerides was determined in a coupled-enzyme spectrophotometric assay. […] The test tubes were incubated for 40 minutes at 37° C. with constant shaking. […] This value was corrected for the amount of NADH generated in the absence of glycerol by incubating another aliquot of the neutralized extract with the same assay mixture but without glycerokinase.

T1 sequence (P26255 whole entry): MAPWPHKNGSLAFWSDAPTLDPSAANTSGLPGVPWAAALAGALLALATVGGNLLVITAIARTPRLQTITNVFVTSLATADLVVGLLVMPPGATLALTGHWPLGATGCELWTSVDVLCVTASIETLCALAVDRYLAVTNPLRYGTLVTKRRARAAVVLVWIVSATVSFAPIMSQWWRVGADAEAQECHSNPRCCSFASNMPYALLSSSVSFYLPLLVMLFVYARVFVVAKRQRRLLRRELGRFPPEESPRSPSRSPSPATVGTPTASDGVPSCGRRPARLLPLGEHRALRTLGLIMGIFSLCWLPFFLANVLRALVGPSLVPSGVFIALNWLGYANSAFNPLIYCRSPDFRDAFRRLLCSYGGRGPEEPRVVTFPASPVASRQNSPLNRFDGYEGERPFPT

COC(=O)C1(C(=O)OC)Oc2ccc(C[C@@H](C)NC[C@H](O)c3cccc(Cl)c3)cc2O1 (stereo in doubt) [CL1, (R* R*)-(±)-5-(2-((2-(3-chlorophenyl)-2-hydroxyethyl)amino)propyl)-1,3-benzodioxole-2,2-dicarboxylic acid, dimethyl ester hydrobromide]
Plasma Glucose Levels ([1]; dose 0.0005 % wt of chow, week 0 (before treatment)): 270 mg/100 ml
Plasma Glucose Levels ([1]; dose 0.0005 % wt of chow, week 1): 164 mg/100 ml
Plasma Glucose Levels ([1]; dose 0.0005 % wt of chow, week 4): 179 mg/100 ml
Plasma Glucose Levels ([1]; dose 0.002 % wt of chow, week 0 (before treatment)): 276 mg/100 ml
Plasma Glucose Levels ([1]; dose 0.002 % wt of chow, week 1): 150 mg/100 ml
Plasma Glucose Levels ([1]; dose 0.002 % wt of chow, week 4): 156 mg/100 ml
Plasma Glucose Levels ([1]; dose 0.005 % wt of chow, week 0 (before treatment)): 237 mg/100 ml
Plasma Glucose Levels ([1]; dose 0.005 % wt of chow, week 1): 143 mg/100 ml
Plasma Glucose Levels ([1]; dose 0.005 % wt of chow, week 4): 157 mg/100 ml
times more selective for lipolysis than prior art compound ([2]; CL2 vs BRL2, CL1 vs BRL1): 3 times
Relative Selectivity (CL/BRL), Atria ([2]; CL2 vs BRL2, CL1 vs BRL1, lipolysis over atria): 3.1
Relative Selectivity (CL/BRL), Gly. Syn. ([2]; CL2 vs BRL2, CL1 vs BRL1, lipolysis over glycogen synthesis): 3.0
Selectivity for Lipolysis over Atria ((EC50 - β1)/(EC50 - β3)) ([2]; ratio EC50 β1 / EC50 β3): 47
Selectivity for Lipolysis over Gly. Syn. ((EC50 - β2)/(EC50 - β3)) ([2]; ratio EC50 β2 / EC50 β3): 27
